Data reported in PubChem BioAssay AID2060910 (Molecular Pharmacology Branch, DTP, NCI, 2025).
pIC50: −log10 of the molar value.

System: 242566-281-R-J2-PDC complex spheroid viability
Assay: Anticancer human tumor 242566-281-R-J2-PDC patient-derived pancreatic carcinoma cell line growth inhibition [RAS]
Details: for pIC50: curve of first compound; for viability, T/C: stronger effect = lower value; active = viability on the fitted dose curve at most 10% of control; inactive = the rest
In short: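 Multi-cell-type spheroids: tumor cells plus HUVEC endothelial cells and mesenchymal stem cells. RAS-pathway inhibitors were combined with targeted agents, each dosed in half-log steps down from clinical Cmax, or from 10 microM when Cmax was unknown.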

[1] = second compound 0.00316 µM, first compound 0.0316 µM
[2] = second compound 0.00316 µM, first compound 0.1 µM
[3] = second compound 0.00316 µM, first compound 0.316 µM
[4] = second compound 0.00316 µM, first compound 1 µM
[5] = second compound 0.00316 µM, first compound 3.16 µM
[6] = second compound 0.00316 µM, first compound 10 µM
[7] = second compound 0.01 µM, first compound 0.0316 µM
[8] = second compound 0.01 µM, first compound 0.1 µM
[9] = second compound 0.01 µM, first compound 0.316 µM
[10] = second compound 0.01 µM, first compound 1 µM
[11] = second compound 0.01 µM, first compound 3.16 µM
[12] = second compound 0.01 µM, first compound 10 µM
[13] = second compound 0.0316 µM, first compound 0.0316 µM
[14] = second compound 0.0316 µM, first compound 0.1 µM
[15] = second compound 0.0316 µM, first compound 0.316 µM
[16] = second compound 0.0316 µM, first compound 1 µM
[17] = second compound 0.0316 µM, first compound 3.16 µM
[18] = second compound 0.0316 µM, first compound 10 µM
[19] = second compound 0.1 µM, first compound 0.0316 µM
[20] = second compound 0.1 µM, first compound 0.1 µM
[21] = second compound 0.1 µM, first compound 0.316 µM
[22] = second compound 0.1 µM, first compound 1 µM
[23] = second compound 0.1 µM, first compound 3.16 µM
[24] = second compound 0.1 µM, first compound 10 µM
[25] = second compound 0.316 µM, first compound 0.0316 µM
[26] = second compound 0.316 µM, first compound 0.1 µM
[27] = second compound 0.316 µM, first compound 0.316 µM
[28] = second compound 0.316 µM, first compound 1 µM
[29] = second compound 0.316 µM, first compound 3.16 µM
[30] = second compound 0.316 µM, first compound 10 µM
[31] = second compound 1 µM, first compound 0.0316 µM
[32] = second compound 1 µM, first compound 0.1 µM
[33] = second compound 1 µM, first compound 0.316 µM
[34] = second compound 1 µM, first compound 1 µM
[35] = second compound 1 µM, first compound 3.16 µM
[36] = second compound 1 µM, first compound 10 µM
[37] = second compound 0.00316 µM, first compound 0.00316 µM
[38] = second compound 0.00316 µM, first compound 0.01 µM
[39] = second compound 0.01 µM, first compound 0.00316 µM
[40] = second compound 0.01 µM, first compound 0.01 µM
[41] = second compound 0.0316 µM, first compound 0.00316 µM
[42] = second compound 0.0316 µM, first compound 0.01 µM
[43] = second compound 0.1 µM, first compound 0.00316 µM
[44] = second compound 0.1 µM, first compound 0.01 µM
[45] = second compound 0.316 µM, first compound 0.00316 µM
[46] = second compound 0.316 µM, first compound 0.01 µM
[47] = second compound 1 µM, first compound 0.00316 µM
[48] = second compound 1 µM, first compound 0.01 µM
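Also: spheroids exposed to compound for 7 days before readout.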
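For viability, T/C in this document: 100% = DMSO vehicle control wells.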

CC(C)NCC(C(=O)N1CCN(c2ncnc3c2C(C)CC3O)CC1)c1ccc(Cl)cc1 (stereo not given) + C=CC(=O)N1CCN(c2nc(OCC3CCCN3C)nc3c(F)c(-c4nc(N)cc(C)c4C(F)(F)F)c(Cl)cc23)C(C)C1
inactive: viability, T/C [1] 115% | viability, T/C [2] 99.9% | viability, T/C [3] 106% | viability, T/C [4] 90.6% | viability, T/C [5] 81.9% | viability, T/C [6] 84.9% | viability, T/C [7] 100% | viability, T/C [8] 122% | viability, T/C [9] 102% | viability, T/C [10] 98.7% | viability, T/C [11] 91.2% | viability, T/C [12] 89.3% | viability, T/C [13] 107% | viability, T/C [14] 117% | viability, T/C [15] 90.9% | viability, T/C [16] 93.1% | viability, T/C [17] 90.9% | viability, T/C [18] 86.2% | viability, T/C [19] 91.8% | viability, T/C [20] 104% | viability, T/C [21] 95.1% | viability, T/C [22] 89.1% | viability, T/C [23] 87.5% | viability, T/C [24] 77.7% | viability, T/C [25] 98.6% | viability, T/C [26] 114% | viability, T/C [27] 97.5% | viability, T/C [28] 88% | viability, T/C [29] 88% | viability, T/C [30] 81.2% | viability, T/C [31] 99.6% | viability, T/C [32] 133% | viability, T/C [33] 107% | viability, T/C [34] 101% | viability, T/C [35] 77.6% | viability, T/C [36] 82.9%
< 5.00: pIC50 (second compound 0.00316 µM) | pIC50 (second compound 0.01 µM) | pIC50 (second compound 0.0316 µM) | pIC50 (second compound 0.1 µM) | pIC50 (second compound 0.316 µM) | pIC50 (second compound 1 µM)

CC(C)n1nc(-c2ccc3oc(N)nc3c2)c2c(N)ncnc21 + C=CC(=O)N1CCN(c2nc(OCC3CCCN3C)nc3c(F)c(-c4nc(N)cc(C)c4C(F)(F)F)c(Cl)cc23)C(C)C1
inactive: viability, T/C (second compound 0.00316 µM, first compound 0.000316 µM) 93.1% | viability, T/C (second compound 0.00316 µM, first compound 0.001 µM) 154% | viability, T/C [37] 91.4% | viability, T/C [38] 78.9% | viability, T/C [1] 58.5% | viability, T/C [2] 53.8% | viability, T/C (second compound 0.01 µM, first compound 0.000316 µM) 111% | viability, T/C (second compound 0.01 µM, first compound 0.001 µM) 150% | viability, T/C [39] 94.9% | viability, T/C [40] 72.7% | viability, T/C [7] 55.5% | viability, T/C [8] 53.6% | viability, T/C (second compound 0.0316 µM, first compound 0.000316 µM) 101% | viability, T/C (second compound 0.0316 µM, first compound 0.001 µM) 138% | viability, T/C [41] 83.4% | viability, T/C [42] 79.2% | viability, T/C [13] 67.1% | viability, T/C [14] 54.6% | viability, T/C (second compound 0.1 µM, first compound 0.000316 µM) 98.5% | viability, T/C (second compound 0.1 µM, first compound 0.001 µM) 111% | viability, T/C [43] 89.9% | viability, T/C [44] 84.3% | viability, T/C [19] 62% | viability, T/C [20] 55.7% | viability, T/C (second compound 0.316 µM, first compound 0.000316 µM) 109% | viability, T/C (second compound 0.316 µM, first compound 0.001 µM) 107% | viability, T/C [45] 107% | viability, T/C [46] 81.5% | viability, T/C [25] 69.5% | viability, T/C [26] 55.3% | viability, T/C (second compound 1 µM, first compound 0.000316 µM) 109% | viability, T/C (second compound 1 µM, first compound 0.001 µM) 140% | viability, T/C [47] 86.4% | viability, T/C [48] 88.3% | viability, T/C [31] 75.2% | viability, T/C [32] 55.7%
< 7.00: pIC50 (second compound 0.00316 µM) | pIC50 (second compound 0.01 µM) | pIC50 (second compound 0.0316 µM) | pIC50 (second compound 0.1 µM) | pIC50 (second compound 0.316 µM) | pIC50 (second compound 1 µM)

CC1(O)CCCC1n1c(=O)c(C(F)F)cc2cnc(NC3CCN(S(C)(=O)=O)CC3)nc21 (stereo not given) + C=CC(=O)N1CCN(c2nc(OCC3CCCN3C)nc3c(F)c(-c4nc(N)cc(C)c4C(F)(F)F)c(Cl)cc23)C(C)C1
inactive: viability, T/C [1] 86.6% | viability, T/C [2] 108% | viability, T/C [3] 83.9% | viability, T/C [4] 108% | viability, T/C [5] 112% | viability, T/C [6] 72.7% | viability, T/C [7] 99% | viability, T/C [8] 113% | viability, T/C [9] 106% | viability, T/C [10] 99.5% | viability, T/C [11] 123% | viability, T/C [12] 68.9% | viability, T/C [13] 94.7% | viability, T/C [14] 106% | viability, T/C [15] 108% | viability, T/C [16] 132% | viability, T/C [17] 115% | viability, T/C [18] 66.6% | viability, T/C [19] 96.3% | viability, T/C [20] 104% | viability, T/C [21] 97.9% | viability, T/C [22] 106% | viability, T/C [23] 112% | viability, T/C [24] 68.2% | viability, T/C [25] 96.5% | viability, T/C [26] 108% | viability, T/C [27] 89.5% | viability, T/C [28] 116% | viability, T/C [29] 139% | viability, T/C [30] 64.5% | viability, T/C [31] 92.1% | viability, T/C [32] 126% | viability, T/C [33] 110% | viability, T/C [34] 98.1% | viability, T/C [35] 112% | viability, T/C [36] 44.2%
5.05: pIC50 (second compound 1 µM)
< 5.00: pIC50 (second compound 0.00316 µM) | pIC50 (second compound 0.01 µM) | pIC50 (second compound 0.0316 µM) | pIC50 (second compound 0.1 µM) | pIC50 (second compound 0.316 µM)

CCN1CCN(Cc2ccc(Nc3ncc(F)c(-c4cc(F)c5nc(C)n(C(C)C)c5c4)n3)nc2)CC1 + C=CC(=O)N1CCN(c2nc(OCC3CCCN3C)nc3c(F)c(-c4nc(N)cc(C)c4C(F)(F)F)c(Cl)cc23)C(C)C1
< 6.00: pIC50 (second compound 0.00316 µM) | pIC50 (second compound 0.01 µM) | pIC50 (second compound 0.0316 µM) | pIC50 (second compound 0.1 µM) | pIC50 (second compound 0.316 µM) | pIC50 (second compound 1 µM)
inactive: viability, T/C [37] 121% | viability, T/C [38] 135% | viability, T/C [1] 100% | viability, T/C [2] 90.5% | viability, T/C [3] 123% | viability, T/C [4] 167% | viability, T/C [39] 95.2% | viability, T/C [40] 160% | viability, T/C [7] 101% | viability, T/C [8] 88.8% | viability, T/C [9] 127% | viability, T/C [10] 154% | viability, T/C [41] 104% | viability, T/C [42] 120% | viability, T/C [13] 102% | viability, T/C [14] 108% | viability, T/C [15] 131% | viability, T/C [16] 169% | viability, T/C [43] 115% | viability, T/C [44] 136% | viability, T/C [19] 97.9% | viability, T/C [20] 89.3% | viability, T/C [21] 130% | viability, T/C [22] 167% | viability, T/C [45] 98.1% | viability, T/C [46] 134% | viability, T/C [25] 94.5% | viability, T/C [26] 99.9% | viability, T/C [27] 154% | viability, T/C [28] 154% | viability, T/C [47] 94.2% | viability, T/C [48] 136% | viability, T/C [31] 94.9% | viability, T/C [32] 96.8% | viability, T/C [33] 138% | viability, T/C [34] 160%

C[C@@H](NC(=O)c1ncnc(N)c1Cl)c1ncc(C(=O)Nc2cc(C(F)(F)F)c(Cl)cn2)s1 + C=CC(=O)N1CCN(c2nc(OCC3CCCN3C)nc3c(F)c(-c4nc(N)cc(C)c4C(F)(F)F)c(Cl)cc23)C(C)C1
< 5.00: pIC50 (second compound 0.00316 µM) | pIC50 (second compound 0.01 µM) | pIC50 (second compound 0.0316 µM) | pIC50 (second compound 0.1 µM) | pIC50 (second compound 0.316 µM) | pIC50 (second compound 1 µM)
inactive: viability, T/C [1] 111% | viability, T/C [2] 142% | viability, T/C [3] 111% | viability, T/C [4] 106% | viability, T/C [5] 110% | viability, T/C [6] 126% | viability, T/C [7] 112% | viability, T/C [8] 148% | viability, T/C [9] 113% | viability, T/C [10] 105% | viability, T/C [11] 105% | viability, T/C [12] 122% | viability, T/C [13] 125% | viability, T/C [14] 124% | viability, T/C [15] 115% | viability, T/C [16] 123% | viability, T/C [17] 97.1% | viability, T/C [18] 118% | viability, T/C [19] 122% | viability, T/C [20] 153% | viability, T/C [21] 107% | viability, T/C [22] 113% | viability, T/C [23] 106% | viability, T/C [24] 109% | viability, T/C [25] 107% | viability, T/C [26] 124% | viability, T/C [27] 122% | viability, T/C [28] 112% | viability, T/C [29] 110% | viability, T/C [30] 124% | viability, T/C [31] 111% | viability, T/C [32] 124% | viability, T/C [33] 119% | viability, T/C [34] 103% | viability, T/C [35] 117% | viability, T/C [36] 106%
